{"source": "patent US20120122903A1", "about": "“1-H-QUINAZOLINE-2, 4-DIONES FOR USE IN THE TREATMENT OF NEURONAL CEROID LIPOFUSCINOSIS” (priority 2009, published 2012)", "key": {"mouse": {"test_system": "mouse", "assay": "Oral activity in vivo (audiogenic mouse test and/or MES test)", "settings": "oral administration", "experimental": "The oral bioavailability was tested using the audiogenic mouse test (Audiogenic seizures, R. L. Collins; Chapter 14, pages: 347-372. In: Experimental Models of Epilepsy; By: Pupura, Penry, Tower, Woodbury, Waiter, Raven Press, New York, 1972. Standard Book Number: 0-911216-26-X) and/or the MES test."}, "OF1 mice": {"test_system": "OF1 mice", "assay": "Murine maximal electroshock test (MES test)", "format": "in vivo, mouse", "settings": "p.o., percentage of protected mice, printed '@ 20' (mg/kg)"}}}
{"compound": "Cn1nccc1-c1cc2c(=O)n(NS(C)(=O)=O)c(=O)[nH]c2cc1C(C)(F)F", "note": "[Compound C-15, N-[7-(1,1-difluoro-ethyl)-6-(2-methyl-2H-pyrazol-3-yl)-2,4-dioxo-1,4-dihydro-2H-quinazolin-3-yl]-methanesulfonamide]", "values": [{"measurement": "In vivo orally active", "setting": "mouse", "value": "Yes"}, {"measurement": "MES-Test (1 h, po) % protection @ 20", "setting": "OF1 mice", "value": 80, "unit": "% @ 20^"}]}
